Measurements taken from patent publication US6046228A, “Anti-viral pharmaceutical compositions containing saturated 1,2-dithiaheterocyclic compounds and uses thereof” (priority 1999, dated 2000).
Several values for one entry are separate records, joined by “and”; a condition that tells them apart may be missing. Identical values can stand only once. Like-named read-outs stand apart in the source and are kept apart here.

Columns and labels:
HIV-1RF = assay: XTT cytoprotection (cytopathicity) anti-HIV assay, CEM-SS cells; format: cell-based
Protocol: (§1) Initial anti-HIV screening was performed with CEM-SS cells and HIV-1RFusing the XTT cytoprotection assay as previously described (Weislow et al., J. National Cancer Inst. 81: 577-586, (1989)). HIV-1 isolates included common laboratory stains (RF, IIIB and MN), as well as a panel of HIV-1 clinical isolates (Cushman et al., J. Med. Chem. 37: 3040-3050, (1994)). The pyridone-resistant HIV-1A17 isolate (Nunberg et al., J. Virol., 65: 4887-4892 (1991)) was obtained from Emilio Emini at Merck Sharpe and Dohme Laboratories. Phytohemagglutinin-stimulated human peripheral blood lymphocytes (PBLs) and fresh monocyte-macrophage (Mono/MF) cultures were prepared and utilized in antiviral assays as previously described (Rice et al., Proc. Nat'l. Academy Science, USA 90: 9721-9724, (1993)); (Cushman et al., J. Med. Chem. 37: 3040-3050, (1994)). EC50 values for these cultures indicate the drug concentration that provided a 50% reduction in viral p24 production. […] The compounds can be synthesized according to the teachings of Singh et al., Sulfur Letters 8: 107-114, (1988). […] MT-2, MT-4, U1, HeLa-CD4-LTR-β-gal and 174xCEM cells were obtained from the AIDS Research and Reference Program (National Institute of Allergy and Infectious Disease, National Institutes of Health, Bethesda, Md. USA), as were the HIV-2MS and the AZT-resistant HIV-1G910-6 isolates.
(§2) Racemate and enantiomers of the cis-1,1-dioxo[1,2]dithiane-4,5-diol were synthesized and evaluated for antiviral activity in the XTT assay as described hereinabove.

CEM-SS cells = assay: XTT assay, cytotoxicity (IC50), CEM-SS cells; format: cell-based
Protocol: as §1, §2

[1] = tested on: attachment of HIV-1 to fresh human PBLs; assay: virus attachment assay, HIV-1RF to PBLs (p24-based); format: cell-based; conditions: control; 30 min
Protocol: Binding of HIV-1RF to PBLs was measured by a p24-based assay (Rice, et al., Proc. Nat'l. Academy of Science USA 90: 9721-9724, (1993)). Briefly, 5×10^5 PBLs were incubated with a concentrated stock of virus for 30 min. at 37° C. in the absence or presence of various concentrations of 624151, the unbound virus was washed away, and the cell-associated virus was solubilized in 1% Triton X-100, 1% BSA and analyzed by the p24 antigen capture assay as previously described. The binding of gp120to CD4 was analyzed using an antigen capture ELISA. All steps of the assay were carried out according to the manufacturer's protocols.
^.dagger. Attachment of HIV1 to fresh human PBLs, binding of gp120 to […]

HIV-1 p7NC protein = target: T1, HIV-1 p7NC protein (Human immunodeficiency virus type 1 group M subtype B, UniProt P04591); assay: Trp37 zinc finger fluorescence assay (zinc ejection from p7NC); format: biochemical; conditions: 25 μM compound, listed as 693195
T1 construct: recombinant HIV-1 p7NC protein
Protocol: Fluorescence measurements of the Trp^37 residue in the C-terminal zinc finger of the recombinant HIV-1 p7NC protein were performed as previously described (Rice et al., Science 270:1194, 1995). The p7NC protein was prepared at 20 μg/ml in 10 mM sodium phosphate buffer (pH 7.0), treated with 25 μM of each compound, then after indicated time intervals the samples were diluted 1/10 in 10 mM sodium phosphate buffer (pH 7.0) and the fluorescence intensity measured. The excitation and emission wavelengths utilized with the Shimadzu RF5000 spectrofluorimeter were 280 nm and 351 nm, respectively. In an alternate assay, the zinc-selective fluorescent probe N-(6-methoxy-8quinolyl-)-p-toluenesulfonamide (TSQ, Molecular Probes, Eugene, Oreg.) originally described by Fredrickson (J. Neurosci. Meth. 20:91, 1987) was utilized to measure zinc released from the p7NC protein in vitro. Briefly, 2 μM recombinant HIV-1 p7NC protein in 10 mM sodium phosphate buffer, pH 7.0, 10% glycerol was treated with 10 μM 624151 ([…] total volume in 96-well plates), and the time-dependent increase in fluorescence was measured on a Labsystems Fluoroskan II (360 nm excitation filter and 460 nm emission filter) over a period of 2 hours. Induction of alterations of p7NC proteins within intact virions involved treatment of HIV-1MN for 1 hour at 37° C. with 25 μM test compound. Samples were centrifuged 1 hour at 4° C. under 18,000×g to pellet the virus from the drug. Virus pellets were resolved by non-reducing SDS-PAGE and analyzed by immunoblot using monospecific rabbit antisera to the purified p7NC protein.
^b The percent decrease in RFU was calculated based on measurement of
the initial fluorescence of the p7NC protein before and 10 minutes after
treatment with the 25 μM of compound at ambient temperature.
The ability of 624151 to chemically interact with the zinc fingers of the HIV-1 p7NC protein was initially determined by a fluorescence assay (Rice et al., Science 270:1194-1197, (1995)) that measures a loss in intrinsic fluorescence of the tryptophan (Trp^37) residue in the second finger of the protein that occurs upon loss of zinc from the finger (Summers et al., Protein Sci. 1:563, 1992). […] As the 624151 modifies the zinc finger thiolates and the zinc is ejected over time, the metal is bound by the TSQ fluorochrome (FIG. 1(B)).
Sodium Phosphate buffer, pH 7.0 in 1 ml was treated with 25 μM of
compound. At indicated times, the mixture was diluted 1/10 and the
relative fluorescence units (RFU) measured in a Shimadzu RF5000
spectrofluorimeter with […] and Em = 351 mn. Following
loss of zinc from the Cterminal zinc finger, the Trp37 residue folds away
from the # aqueous environment and experiences a loss of fluorescence.

HIV-1 integrase = target: T2, HIV-1 integrase (Human immunodeficiency virus type 1 group M subtype B, UniProt P04585); assay: HIV-1 integrase activity; format: biochemical; conditions: Table 6
T2 construct: the purified HIV-1 protease and integrase enzymes

Molecule	EC50 Mean (HIV-1RF; Table 5) [µg/mL]	IC50 Duplicates (CEM-SS cells; Table 5, cytotoxicity) [µg/mL]	IC50 Mean (CEM-SS cells; Table 5, cytotoxicity) [µg/mL]	virion binding ID50 [1] [µg/mL]	EC50 (HIV-1RF; CEM-SS cells, HIV-1RF, read-out: XTT Assay EC50) [µM]	EC50 (HIV-1RF; Table 5, listed as 693195, read-out: EC50 Duplicates)	EC50 (HIV-1RF; Table 5, listed as 693195, read-out: EC50 Mean) [µM]	EC50 relative to enantiomer or racemate (HIV-1RF; in words)	IC50 (CEM-SS cells; Table 5, cytotoxicity, listed as 693195, read-out: IC50 Duplicates)	IC50 (CEM-SS cells; Table 5, cytotoxicity, listed as 693195, read-out: IC50 Mean) [µM]	IC50 (CEM-SS cells; cytotoxicity, CEM-SS cells, read-out: XTT Assay IC50) [µM]	p7NC Trp37 Assay (RFU) (HIV-1 p7NC protein; 0 min)	p7NC Trp37 Assay (RFU) (HIV-1 p7NC protein; 3 min)	p7NC Trp37 Assay (RFU) (HIV-1 p7NC protein; 10 min)	p7NC Trp37 Assay (RFU) (HIV-1 p7NC protein; 30 min)	inhibition of HIV-1 integrase (HIV-1 integrase)
dextran sulfate [reference compound]	0.76	> 95	> 95	1.8												
O=S1(=O)C[C@H](O)[C@H](O)CS1 (single isomer, unassigned) [NSC 693195, (-)-cis-4,5-Dihydroxy-1,2-dithiane 1,1-dioxide]					8.8	9.04 µM and 8.64 µM	8.8	about half that of the (+) enantiomer	129 µM and 135 µM	132	132	279	117	69	45	NI100
